According to patent EP0540143B1, “Compounds and methods for inhibition of HIV and related viruses” (priority 1991, dated 1993):

How the values were obtained:
HIV virus = assay: Test A (XTT), MT4 cells infected with HIV; assay type: cell-based; conditions: for inhibition at 1 µg/mL / inhibition at 10 µg/mL / inhibition at 100 µg/mL / inhibition at 0.1 µg/mL: Human immunodeficiency virus 1, MT4, Test A; for % inhibition: Test A
Protocol: (§1) Tests A, B, C, and D (XTT)
(§2) MT4 cells in a medium of RPMI 1640, 5% FCS, penicillin/streptomycin are adjusted to 2x10^5 cells/ml and seeded into microplates (96 wells/plate) 100 µl cell suspension/well giving 2x10^4 cells/well. The compound to be tested is made into a 10 mg/ml mixture in DMSO and stored at -20°C. The compound in DMSO is diluted with medium containing 10% DMSO in a 10-fold dilution series to give 1 mg/ml, 10 mg/ml, and […] solutions. Further dilutions to 400, 40, 4 and 0.4 mg/ml are made in medium containing microplates. Fifty µl of the 400, 40, and 4 mg/ml are transferred to the cell-containing microplates with a multi-channel pipette (final concentration: 100, 10, and 1 mg/ml). Finally, 50 µl of virus suspension is added to each well (with a repetitive "Eppendorf" multipipett). Each plate has at least six wells with the following: [Test A: HIV virus; Test B: HIV(II) virus; Test C: SIV virus; Test D: No virus]; with no drug (virus control) and six wells without virus (medium control). The plate is put into a plastic bag and incubated for six days in CO2 atmosphere. To each well in the plate is added 50 µl of XTT ((2,3-bis[2-methoxy-4-nitro-5-sulfophenyl]-5-[(phenylamino)carbonyl]-2H-tetrazolium hydroxide), (1 mg/ml 0.01-0.02 mM N-metyl-phenazonium methosulfate). After six hours of incubation in CO2 atmosphere the plates are covered with adhesive plate sealers and gently mixed on a vortex. Optical densities are determined at a wavelength of 450 nm and a reference wavelength of 650 nm. The percent reduction of cytotoxocity caused by the virus infection is calculated as follows: (OD450 compound - OD450 inf cells)/(OD450 uninf cells - OD450 inf cells)x 100 [formula]

recombinant HIV-RT = recombinant HIV-RT (Human immunodeficiency virus type 1 group M subtype B, UniProt P04585); assay: Test I (HIVRT (rAdt)), direct inhibition of recombinant HIV-RT; assay type: biochemical
Protocol: The compounds were tested for direct inhibitory activity on HIV-RT in a volume of […] recombinant HIV-RT (diluted in virus disruption buffer to give 200.000 cpm).
100 mM Tris-HCl pH 7.6, 100 mM KCl, 4 mM MgCl2, 4 mM DTT, 275 mg/ml BSA, 0.5 mg (rA)n(dT)12-18 and 0.3 mM ^3H- dTTP (specific activity […]). After 60 minutess of incubation 40 ml in duplicate were spotted on paper discs and washed in 5% TCA. After rinsing the paper discs in ethanol they were dried and counted in scintillation fluid.

SIV virus = assay: Test C (XTT), MT4 cells infected with SIV; assay type: cell-based; conditions: Simian immunodeficiency virus, MT4, Test C
Protocol: as §1, §2

HIV(II) virus = assay: Test B (XTT), MT4 cells infected with HIV(II); assay type: cell-based; conditions: Human immunodeficiency virus 1, MT4, Test B
Protocol: as §1, §2

S=C(NCCc1ccccc1)Nc1cc[nH]n1
inhibition at 1 µg/mL (HIV virus; 1 µg/ml): 0% | inhibition at 10 µg/mL (HIV virus; 10 µg/ml): 0% | inhibition at 100 µg/mL (HIV virus; 100 µg/ml): 0% | inhibition at 0.1 µg/mL (recombinant HIV-RT): 1% | inhibition at 1 µg/mL (recombinant HIV-RT): 8% | inhibition at 10 µg/mL (recombinant HIV-RT): 38%

S=C(NCCc1ccccc1)Nc1ccccc1
inhibition at 1 µg/mL (HIV virus; 1 µg/ml): 0% | inhibition at 10 µg/mL (HIV virus; 10 µg/ml): 25% | inhibition at 100 µg/mL (HIV virus; 100 µg/ml): 0% | inhibition at 0.1 µg/mL (recombinant HIV-RT): 1% | inhibition at 1 µg/mL (recombinant HIV-RT): 16% | inhibition at 10 µg/mL (recombinant HIV-RT): 16%

COc1ccc(CCNC(=S)Nc2nccs2)cc1OC
inhibition at 10 µg/mL (HIV virus; 10 µg/ml): 54% | inhibition at 100 µg/mL (HIV virus; 100 µg/ml): 0% | % inhibition (HIV virus; 10 µg/ml): 58%

S=C(NCCc1ccccc1)Nc1nc(-c2ccc(Cl)cc2)cs1
inhibition at 1 µg/mL (HIV virus; 1 µg/ml): 0% | inhibition at 10 µg/mL (HIV virus; 10 µg/ml): 0% | inhibition at 100 µg/mL (HIV virus; 100 µg/ml): 18% | inhibition at 0.1 µg/mL (recombinant HIV-RT): 1% | inhibition at 1 µg/mL (recombinant HIV-RT): 1% | inhibition at 10 µg/mL (recombinant HIV-RT): 1%

S=C(NCCc1ccccc1)Nc1ncccn1
inhibition at 1 µg/mL (HIV virus; 1 µg/ml): 0% | inhibition at 10 µg/mL (HIV virus; 10 µg/ml): 23% | inhibition at 100 µg/mL (HIV virus; 100 µg/ml): 22% | inhibition at 0.1 µg/mL (recombinant HIV-RT): 5% | inhibition at 1 µg/mL (recombinant HIV-RT): 12% | inhibition at 10 µg/mL (recombinant HIV-RT): 6%

CCCCOC(=O)c1ccc(NC(=S)NCCc2ccccc2)cc1
inhibition at 0.1 µg/mL (HIV virus): 0% | inhibition at 1 µg/mL (HIV virus; 1 µg/ml): 0% | inhibition at 10 µg/mL (HIV virus; 10 µg/ml): 0%

S=C(NCCc1ccccc1)N1CCCc2ccccc21
inhibition at 1 µg/mL (HIV virus; 1 µg/ml): 0% | inhibition at 10 µg/mL (HIV virus; 10 µg/ml): 0%

S=C(NCCc1ccccc1)Nc1nc(-c2ccc(Br)cc2)cs1
inhibition at 1 µg/mL (HIV virus; 1 µg/ml): 0% | inhibition at 10 µg/mL (HIV virus; 10 µg/ml): 0% | inhibition at 100 µg/mL (HIV virus; 100 µg/ml): 30% | inhibition at 0.1 µg/mL (recombinant HIV-RT): 1% | inhibition at 1 µg/mL (recombinant HIV-RT): 1% | inhibition at 10 µg/mL (recombinant HIV-RT): 1%

S=C(NCCc1ccccc1)Nc1nncs1
inhibition at 1 µg/mL (HIV virus; 1 µg/ml): 100% | inhibition at 10 µg/mL (HIV virus; 10 µg/ml): 100% | inhibition at 100 µg/mL (HIV virus; 100 µg/ml): 100% | inhibition at 1 µg/mL (SIV virus): 0% | inhibition at 10 µg/mL (SIV virus): 17% | inhibition at 100 µg/mL (SIV virus): 0% | inhibition at 1 µg/mL (HIV(II) virus): 100% | inhibition at 10 µg/mL (HIV(II) virus): 57% | inhibition at 100 µg/mL (HIV(II) virus): 96% | inhibition at 0.1 µg/mL (recombinant HIV-RT): 12% | inhibition at 1 µg/mL (recombinant HIV-RT): 14% | inhibition at 10 µg/mL (recombinant HIV-RT): 14%

S=C(NCCc1ccc(Cl)cc1)Nc1nccs1
inhibition at 10 µg/mL (HIV virus; 10 µg/ml): 79% | inhibition at 100 µg/mL (HIV virus; 100 µg/ml): 73% | % inhibition (HIV virus; 10 µg/ml): 93% | % inhibition (HIV virus; 100 µg/ml): 71%

S=C(NCCc1ccccc1)NCc1ccco1
inhibition at 0.1 µg/mL (HIV virus): 3% | inhibition at 1 µg/mL (HIV virus; 1 µg/ml): 10% | inhibition at 10 µg/mL (HIV virus; 10 µg/ml): 7% | inhibition at 0.1 µg/mL (recombinant HIV-RT): 7% | inhibition at 1 µg/mL (recombinant HIV-RT): 12% | inhibition at 10 µg/mL (recombinant HIV-RT): 10%

CCCCCCCCCCCCCCc1sc(NC(=S)NCCc2ccccc2)nc1-c1ccc(Cl)cc1
inhibition at 1 µg/mL (HIV virus; 1 µg/ml): 0% | inhibition at 10 µg/mL (HIV virus; 10 µg/ml): 0% | inhibition at 100 µg/mL (HIV virus; 100 µg/ml): 33% | inhibition at 0.1 µg/mL (recombinant HIV-RT): 1% | inhibition at 1 µg/mL (recombinant HIV-RT): 1% | inhibition at 10 µg/mL (recombinant HIV-RT): 1%

NS(=O)(=O)c1ccc(NC(=S)NCCc2ccccc2)cc1
inhibition at 0.1 µg/mL (HIV virus): 3% | inhibition at 1 µg/mL (HIV virus; 1 µg/ml): 0% | inhibition at 10 µg/mL (HIV virus; 10 µg/ml): 22%

Cc1ccnc(NC(=S)NCCc2ccccc2)n1
inhibition at 1 µg/mL (HIV virus; 1 µg/ml): 42% | inhibition at 10 µg/mL (HIV virus; 10 µg/ml): 64% | inhibition at 100 µg/mL (HIV virus; 100 µg/ml): 100% | inhibition at 1 µg/mL (SIV virus): 0% | inhibition at 10 µg/mL (SIV virus): 0% | inhibition at 100 µg/mL (SIV virus): 0% | inhibition at 1 µg/mL (HIV(II) virus): 0% | inhibition at 10 µg/mL (HIV(II) virus): 27% | inhibition at 100 µg/mL (HIV(II) virus): 100% | inhibition at 0.1 µg/mL (recombinant HIV-RT): 9% | inhibition at 1 µg/mL (recombinant HIV-RT): 15% | inhibition at 10 µg/mL (recombinant HIV-RT): 9%

Cc1cccc2sc(NC(=S)NCCc3ccccc3)nc12
inhibition at 1 µg/mL (HIV virus; 1 µg/ml): 8% | inhibition at 10 µg/mL (HIV virus; 10 µg/ml): 28% | inhibition at 100 µg/mL (HIV virus; 100 µg/ml): 50% | inhibition at 0.1 µg/mL (recombinant HIV-RT): 12% | inhibition at 1 µg/mL (recombinant HIV-RT): 12% | inhibition at 10 µg/mL (recombinant HIV-RT): 24%

S=C(NCCc1ccccc1)Nc1nc(-c2ccncc2)cs1
inhibition at 1 µg/mL (HIV virus; 1 µg/ml): 32% | inhibition at 10 µg/mL (HIV virus; 10 µg/ml): 51% | % inhibition (HIV virus; 1 µg/ml): 46% | % inhibition (HIV virus; 10 µg/ml): 65%
